Data reported in patent publication US8163771B2, “11 β-HSD1 modulators” (Exelixis, Inc., priority 2008, dated 2012).

target: T1, recombinant human 11 β-HSD1 (Homo sapiens, UniProt P28845); assay: 11 β-HSD1 SPA Assay (Scintillation Proximity Assay); format: biochemical
T1 construct: made in house; host or cells: E. coli
Outline: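 E. coli-expressed human enzyme (30-100 nM) with tritiated cortisone 40 nM and NADPH 1 mM in HEPES buffer pH7.4, 2 hours at room temperature. Stopped with protein A SPA beads carrying anti-cortisol antibody and glycyrrhetinic acid; counted after overnight incubation. IC50 from percent inhibition between no-enzyme and no-compound signals.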

T1 sequence (P28845 whole entry): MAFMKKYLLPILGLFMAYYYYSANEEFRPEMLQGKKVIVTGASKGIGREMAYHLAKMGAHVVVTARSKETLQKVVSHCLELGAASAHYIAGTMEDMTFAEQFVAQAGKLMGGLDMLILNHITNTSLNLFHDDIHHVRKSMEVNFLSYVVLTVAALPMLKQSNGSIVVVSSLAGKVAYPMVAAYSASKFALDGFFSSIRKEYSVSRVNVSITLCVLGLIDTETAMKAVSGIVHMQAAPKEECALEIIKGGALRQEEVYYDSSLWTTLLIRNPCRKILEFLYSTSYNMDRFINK

Question: For `CC(C)(Oc1ccc(Cl)cc1Cl)C(=O)NC1CC2CCC(C1)N2c1ccc(C(=O)NC(CO)C(F)(F)F)cn1` (stereo not drawn) [Example 463, 6-(3-endo-{[2-(2,4-dichlorophenoxy)-2-methylpropanoyl]amino}-8-azabicyclo[3.2.1]oct-8-yl)-N-(1,1,1-trifluoro-3-hydroxypropan-2-yl)pyridine-3-carboxamide], which IC50 is on record?
Answer: The IC50 was less than 200 nM.

Question: For `CC(C)(Oc1cc(Cl)c(CO)cc1Cl)C(=O)N[C@H]1C[C@H]2CC[C@@H](C1)N2c1ccc(C(=O)NCC(F)F)cn1` [Example 464, 6-[3-endo-({2-[2,5-dichloro-4-(hydroxymethyl)phenoxy]-2-methylpropanoyl}amino)-8-azabicyclo[3.2.1]oct-8-yl]-N-(2,2-difluoroethyl)pyridine-3-carboxamide], which IC50 is on record?
Answer: Its IC50 is less than 200 nM.

Question: With `CC(C)(Oc1ccc(Cl)cc1C(C)(C)O)C(=O)N[C@H]1C[C@H]2CC[C@@H](C1)N2c1ccc(C(=O)NCC(F)F)cn1` [Example 465, 6-[3-endo-({2-[4-chloro-2-(2-hydroxypropan-2-yl)phenoxy]-2-methylpropanoyl}amino)-8-azabicyclo[3.2.1]oct-8-yl]-N-(2,2-difluoroethyl)pyridine-3-carboxamide] as the molecule, how does the IC50 read?
Answer: The IC50 was less than 200 nM.

Question: How did the IC50 turn out when `CC(C)(Oc1cc(C(C)(C)O)c(Cl)cc1F)C(=O)N[C@H]1C[C@H]2CC[C@@H](C1)N2c1ccc(C(=O)NCC(F)F)cn1` [Example 466, 6-(3-endo-(2-(4-chloro-2-fluoro-5-(2-hydroxypropan-2-yl)phenoxy)-2-methylpropanamido)-8-azabicyclo[3.2.1]octan-8-yl)-N-(2,2-difluoroethyl)nicotinamide] was run?
Answer: The IC50 was less than 200 nM.

Question: Which IC50 does the source give for `CC(C)(Oc1ccc(F)cc1C(C)(C)O)C(=O)N[C@H]1C[C@H]2CC[C@@H](C1)N2c1ccc(C(=O)NCC(F)F)cn1` [Example 467, N-(2,2-difluoroethyl)-6-(3-endo-(2-(4-fluoro-2-(2-hydroxypropan-2-yl)phenoxy)-2-methylpropanamido)-8-azabicyclo[3.2.1]octan-8-yl)nicotinamide] here?
Answer: The IC50 was less than 200 nM.

Question: With `CC(C)(Oc1cc(C(C)(C)O)c(F)cc1F)C(=O)N[C@H]1C[C@H]2CC[C@@H](C1)N2c1ccc(C(=O)NCC(F)F)cn1` [Example 468, N-(2,2-difluoroethyl)-6-[3-endo-({2-[2,4-difluoro-5-(2-hydroxypropan-2-yl)phenoxy]-2-methylpropanoyl}amino)-8-azabicyclo[3.2.1]oct-8-yl]pyridine-3-carboxamide] as the molecule, how does the IC50 read?
Answer: Its IC50 is less than 200 nM.

Question: Which IC50 does the source give for `CC(C)(Oc1ccc(Cl)cc1OC(F)F)C(=O)N[C@H]1C[C@H]2CC[C@@H](C1)N2c1ccc(C(=O)NCC(F)F)cn1` [Example 469, 6-[3-endo-({2-[4-chloro-2-(difluoromethoxy)phenoxy]-2-methylpropanoyl}amino)-8-azabicyclo[3.2.1]oct-8-yl]-N-(2,2-difluoroethyl)pyridine-3-carboxamide] here?
Answer: The IC50 was less than 200 nM.

Question: For `CC(C)(Oc1ccc(Cl)cc1Cl)C(=O)NC1CC2CCC(C1)N2c1ccc(C(=O)NCC(N2CCOCC2)C(F)(F)F)cn1` (stereo not drawn) [Example 470, 6-(3-endo-{[2-(2,4-dichlorophenoxy)-2-methylpropanoyl]amino}-8-azabicyclo[3.2.1]oct-8-yl)-N-[3,3,3-trifluoro-2-(morpholin-4-yl)propyl]pyridine-3-carboxamide], which IC50 is on record?
Answer: The IC50 was less than 200 nM.

Question: `CC(C)(Oc1ccc(C(C)(C)O)cc1Cl)C(=O)N[C@H]1C[C@H]2CC[C@@H](C1)N2c1ccc(C(=O)NCC(F)F)cn1` [Example 471, 6-[3-endo-({2-[2-chloro-4-(2-hydroxypropan-2-yl)phenoxy]-2-methylpropanoyl}amino)-8-azabicyclo[3.2.1]oct-8-yl]-N-(2,2-difluoroethyl)pyridine-3-carboxamide] was tested. Which IC50 did it give?
Answer: The IC50 was less than 200 nM.

Question: How did the IC50 turn out when `CC(C)(Oc1cc(C(C)(C)O)c(F)cc1Cl)C(=O)N[C@H]1C[C@H]2CC[C@@H](C1)N2c1ccc(C(=O)NCC(F)F)cn1` [Example 472, 6-[3-endo-({2-[2-chloro-4-fluoro-5-(2-hydroxypropan-2-yl)phenoxy]-2-methylpropanoyl}amino)-8-azabicyclo[3.2.1]oct-8-yl]-N-(2,2-difluoroethyl)pyridine-3-carboxamide] was run?
Answer: The IC50 was less than 200 nM.

Question: `CC(C)(Oc1cc(C(C)(C)O)c(Cl)cc1Cl)C(=O)N[C@H]1C[C@H]2CC[C@@H](C1)N2c1ccc(C(N)=O)cn1` [Example 473, 6-[3-endo-({2-[2,4-dichloro-5-(2-hydroxypropan-2-yl)phenoxy]-2-methylpropanoyl}amino)-8-azabicyclo[3.2.1]oct-8-yl]pyridine-3-carboxamide] was tested. Which IC50 did it give?
Answer: Its IC50 is less than 200 nM.

Question: How did the IC50 turn out when `CC(C)(Oc1cc(C(C)(C)O)c(Cl)cc1Cl)C(=O)N[C@H]1C[C@H]2CC[C@@H](C1)N2c1ccc(C(=O)O)cn1` [Example 474, 6-[3-endo-({2-[2,4-dichloro-5-(2-hydroxypropan-2-yl)phenoxy]-2-methylpropanoyl}amino)-8-azabicyclo[3.2.1]oct-8-yl]pyridine-3-carboxylic acid] was run?
Answer: The IC50 was less than 2000 nM.

Question: Which IC50 does the source give for `CC(C)(Oc1cc(C(C)(C)O)c(Cl)cc1Cl)C(=O)N[C@H]1C[C@H]2CC[C@@H](C1)N2c1ccc(C(=O)NCC(F)(F)F)cn1` [Example 475, 6-[3-endo-({2-[2,4-dichloro-5-(2-hydroxypropan-2-yl)phenoxy]-2-methylpropanoyl}amino)-8-azabicyclo[3.2.1]oct-8-yl]-N-(2,2,2-trifluoroethyl)pyridine-3-carboxamide] here?
Answer: Its IC50 is less than 200 nM.

Question: For `CC(C)(Oc1ccc(Cl)cc1Cl)C(=O)N[C@H]1C[C@H]2CC[C@@H](C1)N2c1ccc(C(=O)NCC(=O)C(F)(F)F)cn1` [Example 476, 6-(3-endo-{[2-(2,4-dichlorophenoxy)-2-methylpropanoyl]amino}-8-azabicyclo[3.2.1]oct-8-yl)-N-(3,3,3-trifluoro-2-oxopropyl)pyridine-3-carboxamide], which IC50 is on record?
Answer: Its IC50 is less than 200 nM.

Question: With `CC(C)NC(=O)c1ccc(N2[C@@H]3CC[C@H]2C[C@@H](NC(=O)C(C)(C)Oc2cc(C(C)(C)O)c(Cl)cc2Cl)C3)nc1` [Example 477, 6-[3-endo-({2-[2,4-dichloro-5-(2-hydroxypropan-2-yl)phenoxy]-2-methylpropanoyl}amino)-8-azabicyclo[3.2.1]oct-8-yl]-N-(propan-2-yl)pyridine-3-carboxamide] as the molecule, how does the IC50 read?
Answer: The IC50 was less than 200 nM.

Question: For `C=C(C)c1cc(OC(C)(C)C(=O)N[C@H]2C[C@H]3CC[C@@H](C2)N3c2ccc(C(=O)NCC(F)F)cn2)c(Cl)cc1Cl` [Example 478, 6-[3-endo-({2-[2,4-dichloro-5-(prop-1-en-2-yl)phenoxy]-2-methylpropanoyl}amino)-8-azabicyclo[3.2.1]oct-8-yl]-N-(2,2-difluoroethyl)pyridine-3-carboxamide], which IC50 is on record?
Answer: Its IC50 is less than 200 nM.

Question: For `CC(C)(Oc1cc(C(C)(C)O)c(Cl)cc1Cl)C(=O)N[C@H]1C[C@H]2CC[C@@H](C1)N2c1ccc(C(=O)NCC(F)F)c[n+]1[O-]` [Example 479, 6-[3-endo-({2-[2,4-dichloro-5-(2-hydroxypropan-2-yl)phenoxy]-2-methylpropanoyl}amino)-8-azabicyclo[3.2.1]oct-8-yl]-N-(2,2-difluoroethyl)pyridine-3-carboxamide 1-oxide], which IC50 is on record?
Answer: The IC50 was less than 2000 nM.

Question: For “N-(2,2-difluoroethyl)-6- [3-endo-({2-[2-fluoro-4- (2-hydroxypropan-2- yl)phenoxy]-2- methylpropanoyl}amino)- 8-azabicyclo[3.2.1]oct- 8-yl]pyridine-3- carboxamide [Example 305]”, which IC50 is on record?
Answer: The IC50 was less than 200 nM.
